Data published in patent US20240238423A9, “TETRAHYDROISOQUINOLINE HETEROBIFUNCTIONAL BCL-XL DEGRADERS” (Treeline Biosciences, Inc., priority 2022, published 2024).
Where two headings read alike, the source gives them in different places.

Biological target: T1, Human BCL-XL protein (N-terminal HiBiT tagged BCL-XL in HT1080 cells) (Homo sapiens, UniProt Q07817)
T1 construct: expressed in transfected cells; host or cells: HT-1080 (ATCC CCL-121), stably transduced with lentivirus pLV-UBC-N-HiBiT-BCL-XL-PGK-puro and selected with puromycin
Test: HiBiT based degradation assay
Assay type: cell-based
Settings: HT1080 cells expressing HiBiT-BCL-XL; for DC50: BCL-XL degradation
Source text: Human BCL-XL protein coding open reading frame fused with N-terminal HiBiT coding sequence was synthesized from Integrated DNA Technologies (IDT). Next, N-HiBiT-BCL-XL sequence was cloned into pLV-UBC-PGK-Puro, a lentivirus plasmid purchased from Vectorbuilder, to generate pLV-UBC-N-HiBiT-BCL-XL-PGK-puro. Lentiviral particles were generated from Lenti-X™ 293T cells (Clontech) by co-transfection of pLV-UBC-N-HiBiT-BCL-XL-PGK-puro plasmids and lentiviral packaging plasmid mix (Cellecta). HT-1080 [HT1080](ATCC CCL-121) cells were infected with the lentivirus, and HT1080 cells stably integrated with the lentiviral vectors were established by incubation with 1 μg/mL puromycin (Thermofisher).
HT1080 cells expressing N-terminal HiBiT tagged BCL-XL were dispensed into a 384-well plate pre-spotted with compounds at varying concentrations. Three thousand cells were seeded into each well in 40 μL of RPMI 1640 media. […] After incubation, luminescence was read on a PHERAstar FSX Plate Reader (BMG). BCL-XL degradation at each indicated concentration was normalized with the DMSO control. The BCL-XL degradation curves were plotted using a four-parameter logistic model. For compounds displaying hook effects, the curve fitting was performed using the bottom point of the hook curves (i.e., the point of Ymin) as the bottom plateau to calculate EC50.

[1] = BCL-XL degradation normalized with DMSO control, 24 h

T1 sequence (Q07817 whole entry): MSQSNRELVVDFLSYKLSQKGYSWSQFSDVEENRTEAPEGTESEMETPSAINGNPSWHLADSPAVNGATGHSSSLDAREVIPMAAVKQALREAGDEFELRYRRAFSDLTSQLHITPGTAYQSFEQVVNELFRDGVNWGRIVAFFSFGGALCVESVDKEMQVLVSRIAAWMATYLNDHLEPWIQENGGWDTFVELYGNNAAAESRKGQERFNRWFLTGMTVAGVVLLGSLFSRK

Compound | Ymin (24 h) [1] | DC50 (24 h, read-out: EC50 (24 h)) [nM] | Ymin (6 h) (BCL-XL degradation normalized with DMSO control, 6 h) | DC50 (6 h, read-out: EC50 (6 h)) [nM]
Cc1c(O[C@H]2CC[C@H](CCCCN3CCN(c4ccc5c(C6CCC(=O)NC6=O)nn(C)c5c4)C[C@H]3C)CC2)cccc1-c1ccc(N2CCc3cccc(C(=O)Nc4nc5ccccc5s4)c3C2)nc1C(=O)O (stereo partly drawn) [Compound 297a, 6-(8-(benzo[d]thiazol-2-ylcarbamoyl)-3,4-dihydroisoquinolin-2(1H)-yl)-3-(3-(((1s,4r)-4-(4-((2R)-4-(3-(2,6-dioxopiperidin-3-yl)-1-methyl-1H-indazol-6-yl)-2-methylpiperazin-1-yl)butyl)cyclohexyl)oxy)-2-methylphenyl)picolinic acid] | A (Ymin < 50%) | < 100 |  | 
Cc1c(O[C@H](C)CCC2CCN(CC(=O)Nc3ccc4c(C5CCC(=O)NC5=O)nn(C)c4c3)CC2)cccc1-c1ccc(N2CCc3cccc(C(=O)Nc4nc5ccccc5s4)c3C2)nc1C(=O)O (stereo partly drawn) [Compound 162b, 6-[8-(1,3-benzothiazol-2-ylcarbamoyl)-3,4-dihydro-1H-isoquinolin-2-yl]-3-[3-[(1R)-3-[1-[2-[[3-(2,6-dioxo-3-piperidyl)-1-methyl-indazol-6-yl]amino]-2-oxo-ethyl]-4-piperidyl]-1-methyl-propoxy]-2-methyl-phenyl]pyridine-2-carboxylic acid] | B (50% ≤ Ymin < 70%) | < 100 | C (Ymin ≥ 70%) | 100 to 1000
Cc1cc(OCC[C@H](C)C2CCN(CC(=O)Nc3ccc4c(C5CCC(=O)NC5=O)nn(C)c4c3)CC2)ccc1-c1ccc(N2CCc3cccc(C(=O)Nc4nc5ccccc5s4)c3C2)nc1C(=O)O (single isomer, unassigned) [Compound 266b] | A (Ymin < 50%) | < 100 |  | 
Cc1c(OCCCC[C@@H]2CCCN(CC(=O)Nc3ccc4c(C5CCC(=O)NC5=O)nn(C)c4c3)C2)cccc1-c1ccc(N2CCc3cccc(C(=O)Nc4nc5ccccc5s4)c3C2)nc1C(=O)O (stereo partly drawn) [Compound 202b, 6-[8-(1,3-benzothiazol-2-ylcarbamoyl)-3,4-dihydro-1H-isoquinolin-2-yl]-3-[3-[4-[(3R)-1-[2-[[3-(2,6-dioxo-3-piperidyl)-1-methyl-indazol-6-yl]amino]-2-oxo-ethyl]-3-piperidyl]butoxy]-2-methyl-phenyl]pyridine-2-carboxylic acid] | A (Ymin < 50%) | < 100 |  | 
Cc1c(OCC[C@@H](C)C2CCN(CC(=O)Nc3ccc4c(C5CCC(=O)NC5=O)nn(C)c4c3)CC2)cccc1-c1ccc(N2CCc3cccc(C(=O)Nc4nc5ccccc5s4)c3C2)nc1C(=O)O (stereo partly drawn) [Compound 167a, 6-[8-(1,3-benzothiazol-2-ylcarbamoyl)-3,4-dihydro-1H-isoquinolin-2-yl]-3-[3-[(3R)-3-[1-[2-[[3-(2,6-dioxo-3-piperidyl)-1-methyl-indazol-6-yl]amino]-2-oxo-ethyl]-4-piperidyl]butoxy]-2-methyl-phenyl]pyridine-2-carboxylic acid] | A (Ymin < 50%) | < 100 |  | 
Cc1c(OCC[C@@H]2CCN(CC(=O)Nc3ccc4c(C5CCC(=O)NC5=O)nn(C)c4c3)C2)cccc1-c1ccc(N2CCc3cccc(C(=O)Nc4nc5ccccc5s4)c3C2)nc1C(=O)O (stereo partly drawn) [Compound 219a, 6-[8-(1,3-benzothiazol-2-ylcarbamoyl)-3,4-dihydro-1H-isoquinolin-2-yl]-3-[3-[2-[(3S)-1-[2-[[3-(2,6-dioxo-3-piperidyl)-1-methyl-indazol-6-yl]amino]-2-oxo-ethyl]pyrrolidin-3-yl]ethoxy]-2-methyl-phenyl]pyridine-2-carboxylic acid] | A (Ymin < 50%) | < 100 |  | 

More lines, now with the values ahead:

Ymin (24 h) [1] | DC50 (24 h, read-out: EC50 (24 h)) [nM] | Ymin (6 h) (BCL-XL degradation normalized with DMSO control, 6 h) | DC50 (6 h, read-out: EC50 (6 h)) [nM] | Compound
B (50% ≤ Ymin < 70%) | < 100 |  |  | Cc1c(O[C@H]2CC[C@@H](CCCC3CCN(c4ccc5c(C6CCC(=O)NC6=O)nn(C)c5c4)CC3)CC2)cccc1-c1ccc(N2CCc3cccc(C(=O)Nc4nc5ccccc5s4)c3C2)nc1C(=O)O (some centres unmarked) [Compound 311a, 6-(8-(benzo[d]thiazol-2-ylcarbamoyl)-3,4-dihydroisoquinolin-2(1H)-yl)-3-(3-(((1r,4s)-4-(3-(1-(3-(2,6-dioxopiperidin-3-yl)-1-methyl-1H-indazol-6-yl)piperidin-4-yl)propyl)cyclohexyl)oxy)-2-methylphenyl) picolinic acid]
A (Ymin < 50%) | < 100 |  |  | Cc1cc(O[C@H]2CC[C@H](CCCN3CCN(c4ccc5c(C6CCC(=O)NC6=O)nn(C)c5c4)CC3)CC2)ccc1-c1ccc(N2CCc3cccc(C(=O)Nc4nc5ccccc5s4)c3C2)nc1C(=O)O (some centres unmarked) [Compound 254a, 6-(8-(benzo[d]thiazol-2-ylcarbamoyl)-3,4-dihydroisoquinolin-2(1H)-yl)-3-(4-(((1s,4r)-4-(3-(4-(3-(2,6-dioxopiperidin-3-yl)-1-methyl-1H-indazol-6-yl)piperazin-1-yl)propyl)cyclohexyl)oxy)-2-methylphenyl)picolinic acid]
A (Ymin < 50%) | < 100 |  |  | Cc1c(O[C@H]2CC[C@H](CCCN3CCN(c4cccc5c(C6CCC(=O)NC6=O)nn(C)c45)[C@H](C)C3)CC2)cccc1-c1ccc(N2CCc3cccc(C(=O)Nc4nc5ccccc5s4)c3C2)nc1C(=O)O (stereo partly drawn) [Compound 274a, 6-(8-(benzo[d]thiazol-2-ylcarbamoyl)-3,4-dihydroisoquinolin-2(1H)-yl)-3-(3-(((1S,4r)-4-(3-((3R)-4-(3-(2,6-dioxopiperidin-3-yl)-1-methyl-1H-indazol-7-yl)-3-methylpiperazin-1-yl)propyl)cyclohexyl)oxy)-2-methylphenyl)picolinic acid]
A (Ymin < 50%) | < 100 |  |  | Cc1c(O[C@H]2CC[C@H](CCC(=O)N3CCC(c4ccc5c(C6CCC(=O)NC6=O)nn(C)c5c4)CC3)CC2)cccc1-c1ccc(N2CCc3cccc(C(=O)Nc4nc5ccccc5s4)c3C2)nc1C(=O)O (some centres unmarked) [Compound 259a, 6-(8-(benzo[d]thiazol-2-ylcarbamoyl)-3,4-dihydroisoquinolin-2(1H)-yl)-3-(3-(((1r,4r)-4-(3-(4-(3-(2,6-dioxopiperidin-3-yl)-1-methyl-1H-indazol-6-yl)piperidin-1-yl)-3-oxopropyl)cyclohexyl)oxy)-2-methylphenyl)picolinic acid]
A (Ymin < 50%) | < 100 |  |  | Cc1c(O[C@H]2CC[C@H](CCCCN3CCC(c4cccc5c(C6CCC(=O)NC6=O)nn(C)c45)CC3)CC2)cccc1-c1ccc(N2CCc3cccc(C(=O)Nc4nc5ccccc5s4)c3C2)nc1C(=O)O (some centres unmarked) [Compound 298a, 6-(8-(benzo[d]thiazol-2-ylcarbamoyl)-3,4-dihydroisoquinolin-2(1H)-yl)-3-(3-(((1s,4r)-4-(4-(4-(3-(2,6-dioxopiperidin-3-yl)-1-methyl-1H-indazol-7-yl)piperidin-1-yl)butyl)cyclohexyl)oxy)-2-methylphenyl)picolinic acid]
B (50% ≤ Ymin < 70%) | < 100 |  |  | Cc1c(OCCCN2CCN(CC(=O)Nc3cccc4c(C5CCC(=O)NC5=O)nn(C)c34)C[C@@H]2C(F)(F)F)cccc1-c1ccc(N2CCc3cccc(C(=O)Nc4nc5ccccc5s4)c3C2)nc1C(=O)O (stereo partly drawn) [Compound 246a, 6-(8-(benzo[d]thiazol-2-ylcarbamoyl)-3,4-dihydroisoquinolin-2(1H)-yl)-3-(3-(3-((2R)-4-(2-((3-(2,6-dioxopiperidin-3-yl)-1-methyl-1H-indazol-7-yl)amino)-2-oxoethyl)-2-(trifluoromethyl)piperazin-1-yl)propoxy)-2-methylphenyl)picolinic acid]
